Results published in paper PMC11671526, “β-caryophyllene sensitizes hepatocellular carcinoma cells to chemotherapeutics and inhibits cell malignancy through targeting MAPK signaling pathway” (Frontiers in Pharmacology, 2024).

System: HepG2 cells
Assay: RNA-seq transcriptome analysis of differentially expressed genes
Type: cell-based, human
Conditions: BCP vs control HepG2
Experimental: The quality and concentration of RNA were examined by MOPS RNA electrophoresis and Eppendorf BioSpectrometer. The transcriptome analysis was performed by BGI-Wuhan China. The RNA-seq dataset of this study is accessible in the Gene Expression Omnibus (GEO) with an access number of GSE276099. The sequence library for each sample was prepared using the BGISEQ-500 platform with a 50-bp single-end (SE50) format. […]2.2.1) was used to align the clean reads to the reference genome and alignment of the clean reads to the reference genes was carried out using Bowtie2 (v2.4.5) ([Langmead and Salzberg, 2012]; [Kim et al., 2015]). Gene expression levels were calculated by RSEM (v1.3.1) ([Li and Dewey, 2011]). Analysis of differential gene expression was performed using edgeR in the Bioconductor software package ([Robinson et al., 2010]). Using a standard protocol, the RNA samples were also examined by reverse transcription and quantitative polymerase chain reaction (RT-qPCR). In brief, for reverse transcription, total RNA (1 μg) and gDNA wiper Mix were incubated at 42°C for 2 min. The samples were immediately incubated with a master mix containing 10 pmol/μL of poly (dT) primers at 37°C for 15 min and 85°C for 5 s. To detect the expression of specific genes by qPCR analysis, gene-specific primers (shown in Supplementary Table S1) were mixed with the ChamQ Universal SYBER qPCR Master Mix and the reaction was conducted using the Roche Lightcycler 480. The GAPDH value was used to normalize the results of each gene. The RNA-seq data of BCP-treated HepG2 cells were screened for DEGs. Gene symbols were turned into Enterz ID using the org.Hs.eg.db Bio-conductor R package. The cluster profiler (v4.6.2) package was used to perform the Kyoto Encyclopedia of Genes and Genomes (KEGG) and Gene Ontology (GO) enrichment analyses ([Wu et al., 2021]). Following the Transcript per million (TPM) data of the dataset, the line chart, and heatmap were plotted using ggplot2 and pheatmap R packages, respectively.

For `C=C1CC/C=C(\C)CC[C@@H]2[C@@H]1CC2(C)C` [BCP, β-caryophyllene], the “change RAPGEF3” value (gene RAPGEF3, DEG direction) was “Down”, the “logFC RARRES2” value (gene RARRES2, RNA-seq) was -0.9419 and the “change RARRES2” value (gene RARRES2, DEG direction) was “Down”. The “logFC RASSF5” value (gene RASSF5, RNA-seq) was -1.261, the “change RASSF5” value (gene RASSF5, DEG direction) was “Down” and the “logFC RETREG1” value (gene RETREG1, RNA-seq) was 0.6811. For the same compound, the “change RETREG1” value (gene RETREG1, DEG direction) was “Up”, the “logFC RHOB” value (gene RHOB, RNA-seq) was 0.8378 and the “change RHOB” value (gene RHOB, DEG direction) was “Up”. For the same compound, the “logFC RHOBTB1” value (gene RHOBTB1, RNA-seq) was 0.6316, the “change RHOBTB1” value (gene RHOBTB1, DEG direction) was “Up” and the “logFC RILPL2” value (gene RILPL2, RNA-seq) was -0.6633. For the same compound, the “change RILPL2” value (gene RILPL2, DEG direction) was “Down”, the “logFC RNASE4” value (gene RNASE4, RNA-seq) was -1.067 and the “change RNASE4” value (gene RNASE4, DEG direction) was “Down”. The “logFC RNF182” value (gene RNF182, RNA-seq) was 0.812, the “change RNF182” value (gene RNF182, DEG direction) was “Up” and the “logFC RNF208” value (gene RNF208, RNA-seq) was -0.8526. The “change RNF208” value (gene RNF208, DEG direction) was “Down”, the “logFC RSPO3” value (gene RSPO3, RNA-seq) was 1.091 and the “change RSPO3” value (gene RSPO3, DEG direction) was “Up”. For the same compound, the “logFC RUNDC3B” value (gene RUNDC3B, RNA-seq) was -1.157, the “change RUNDC3B” value (gene RUNDC3B, DEG direction) was “Down” and the “logFC S100A3” value (gene S100A3, RNA-seq) was -0.7971. For the same compound, the “change S100A3” value (gene S100A3, DEG direction) was “Down”, the “logFC S100A4” value (gene S100A4, RNA-seq) was -0.5965 and the “change S100A4” value (gene S100A4, DEG direction) was “Down”. For the same compound, the “logFC SCIN” value (gene SCIN, RNA-seq) was -0.6372, the “change SCIN” value (gene SCIN, DEG direction) was “Down” and the “logFC SDCCAG8” value (gene SDCCAG8, RNA-seq) was 0.7756. For the same compound, the “change SDCCAG8” value (gene SDCCAG8, DEG direction) was “Up”, the “logFC SEL1L” value (gene SEL1L, RNA-seq) was 0.5873 and the “change SEL1L” value (gene SEL1L, DEG direction) was “Up”. For the same compound, the “logFC SELENOP” value (gene SELENOP, RNA-seq) was 0.7184, the “change SELENOP” value (gene SELENOP, DEG direction) was “Up” and the “logFC SEMA5A” value (gene SEMA5A, RNA-seq) was 1.3518. For the same compound, the “change SEMA5A” value (gene SEMA5A, DEG direction) was “Up”, the “logFC SIK2” value (gene SIK2, RNA-seq) was 0.6807 and the “change SIK2” value (gene SIK2, DEG direction) was “Up”. The “logFC SLC5A3” value (gene SLC5A3, RNA-seq) was -0.7077, the “change SLC5A3” value (gene SLC5A3, DEG direction) was “Down” and the “logFC SLC9B2” value (gene SLC9B2, RNA-seq) was -0.6372. The “change SLC9B2” value (gene SLC9B2, DEG direction) was “Down”, the “logFC SLC16A6” value (gene SLC16A6, RNA-seq) was 1.033 and the “change SLC16A6” value (gene SLC16A6, DEG direction) was “Up”. The “logFC SLC52A3” value (gene SLC52A3, RNA-seq) was -2.872, the “change SLC52A3” value (gene SLC52A3, DEG direction) was “Down” and the “logFC SLCO4A1” value (gene SLCO4A1, RNA-seq) was -0.7226. The “change SLCO4A1” value (gene SLCO4A1, DEG direction) was “Down”, the “logFC SLFN5” value (gene SLFN5, RNA-seq) was 0.8058 and the “change SLFN5” value (gene SLFN5, DEG direction) was “Up”. The “logFC SLPI” value (gene SLPI, RNA-seq) was -0.5978, the “change SLPI” value (gene SLPI, DEG direction) was “Down” and the “logFC SNED1” value (gene SNED1, RNA-seq) was 0.7039. For the same compound, the “change SNED1” value (gene SNED1, DEG direction) was “Up”, the “logFC SNTB1” value (gene SNTB1, RNA-seq) was 0.7574 and the “change SNTB1” value (gene SNTB1, DEG direction) was “Up”. For the same compound, the “logFC SORBS2” value (gene SORBS2, RNA-seq) was 0.9049, the “change SORBS2” value (gene SORBS2, DEG direction) was “Up” and the “logFC SPAG16” value (gene SPAG16, RNA-seq) was 0.7042. For the same compound, the “change SPAG16” value (gene SPAG16, DEG direction) was “Up”, the “logFC SPRY4” value (gene SPRY4, RNA-seq) was -0.9938 and the “change SPRY4” value (gene SPRY4, DEG direction) was “Down”. The “logFC ST6GALNAC6” value (gene ST6GALNAC6, RNA-seq) was -0.6732, the “change ST6GALNAC6” value (gene ST6GALNAC6, DEG direction) was “Down” and the “logFC STARD10” value (gene STARD10, RNA-seq) was -0.7468. The “change STARD10” value (gene STARD10, DEG direction) was “Down”, the “logFC SULT1A4” value (gene SULT1A4, RNA-seq) was -0.8677 and the “change SULT1A4” value (gene SULT1A4, DEG direction) was “Down”. The “logFC SV2B” value (gene SV2B, RNA-seq) was 1.269, the “change SV2B” value (gene SV2B, DEG direction) was “Up” and the “logFC SYN3” value (gene SYN3, RNA-seq) was -1.293. For the same compound, the “change SYN3” value (gene SYN3, DEG direction) was “Down”, the “logFC TAGLN” value (gene TAGLN, RNA-seq) was 1.297 and the “change TAGLN” value (gene TAGLN, DEG direction) was “Up”. For the same compound, the “logFC TBC1D2” value (gene TBC1D2, RNA-seq) was 0.6507, the “change TBC1D2” value (gene TBC1D2, DEG direction) was “Up” and the “logFC TBC1D17” value (gene TBC1D17, RNA-seq) was -0.5911. For the same compound, the “change TBC1D17” value (gene TBC1D17, DEG direction) was “Down”, the “logFC TCIM” value (gene TCIM, RNA-seq) was 0.8634 and the “change TCIM” value (gene TCIM, DEG direction) was “Up”. The “logFC TCN1” value (gene TCN1, RNA-seq) was -1.416, the “change TCN1” value (gene TCN1, DEG direction) was “Down” and the “logFC TEK” value (gene TEK, RNA-seq) was -1.317. For the same compound, the “change TEK” value (gene TEK, DEG direction) was “Down”, the “logFC TGFB3” value (gene TGFB3, RNA-seq) was -0.7747 and the “change TGFB3” value (gene TGFB3, DEG direction) was “Down”. For the same compound, the “logFC TIMP3” value (gene TIMP3, RNA-seq) was -1.01, the “change TIMP3” value (gene TIMP3, DEG direction) was “Down” and the “logFC TLR4” value (gene TLR4, RNA-seq) was -0.8506. For the same compound, the “change TLR4” value (gene TLR4, DEG direction) was “Down”, the “logFC TM4SF1” value (gene TM4SF1, RNA-seq) was 0.7666 and the “change TM4SF1” value (gene TM4SF1, DEG direction) was “Up”. The “logFC TMEM120B” value (gene TMEM120B, RNA-seq) was -0.6536, the “change TMEM120B” value (gene TMEM120B, DEG direction) was “Down” and the “logFC TNFSF15” value (gene TNFSF15, RNA-seq) was -1.596. For the same compound, the “change TNFSF15” value (gene TNFSF15, DEG direction) was “Down”, the “logFC TNXB” value (gene TNXB, RNA-seq) was -0.7488 and the “change TNXB” value (gene TNXB, DEG direction) was “Down”. For the same compound, the “logFC TPBG” value (gene TPBG, RNA-seq) was -0.9203, the “change TPBG” value (gene TPBG, DEG direction) was “Down” and the “logFC TRNP1” value (gene TRNP1, RNA-seq) was -0.8357. The “change TRNP1” value (gene TRNP1, DEG direction) was “Down”, the “logFC USH1C” value (gene USH1C, RNA-seq) was 0.9916 and the “change USH1C” value (gene USH1C, DEG direction) was “Up”. For the same compound, the “logFC VAMP1” value (gene VAMP1, RNA-seq) was -0.8271, the “change VAMP1” value (gene VAMP1, DEG direction) was “Down” and the “logFC VSIR” value (gene VSIR, RNA-seq) was -0.6272. For the same compound, the “change VSIR” value (gene VSIR, DEG direction) was “Down”, the “logFC XYLT1” value (gene XYLT1, RNA-seq) was 1.184 and the “change XYLT1” value (gene XYLT1, DEG direction) was “Up”. The “logFC ZBED6CL” value (gene ZBED6CL, RNA-seq) was -0.9925, the “change ZBED6CL” value (gene ZBED6CL, DEG direction) was “Down” and the “logFC ZNF365” value (gene ZNF365, RNA-seq) was -1.468. The “change ZNF365” value (gene ZNF365, DEG direction) was “Down”, the “logFC ZRANB3” value (gene ZRANB3, RNA-seq) was 1.008 and the “change ZRANB3” value (gene ZRANB3, DEG direction) was “Up”.
